From patent US8119681B2, “2-[1-phenyl-5-hydroxy or methoxy-4alpha-methyl-hexahydrocyclopenta [ƒ]indazole-5-YL]ethyl phenyl derivatives as glucocorticoid receptor ligands” (Merck Sharp & Dohme Corp., priority 2006, dated 2012) come the findings set out here.

Molecules are shown by their SMILES.

For the first experiment, the target named is T1, human GR (Homo sapiens, UniProt P04150).
T1 sequence (P04150 1-777): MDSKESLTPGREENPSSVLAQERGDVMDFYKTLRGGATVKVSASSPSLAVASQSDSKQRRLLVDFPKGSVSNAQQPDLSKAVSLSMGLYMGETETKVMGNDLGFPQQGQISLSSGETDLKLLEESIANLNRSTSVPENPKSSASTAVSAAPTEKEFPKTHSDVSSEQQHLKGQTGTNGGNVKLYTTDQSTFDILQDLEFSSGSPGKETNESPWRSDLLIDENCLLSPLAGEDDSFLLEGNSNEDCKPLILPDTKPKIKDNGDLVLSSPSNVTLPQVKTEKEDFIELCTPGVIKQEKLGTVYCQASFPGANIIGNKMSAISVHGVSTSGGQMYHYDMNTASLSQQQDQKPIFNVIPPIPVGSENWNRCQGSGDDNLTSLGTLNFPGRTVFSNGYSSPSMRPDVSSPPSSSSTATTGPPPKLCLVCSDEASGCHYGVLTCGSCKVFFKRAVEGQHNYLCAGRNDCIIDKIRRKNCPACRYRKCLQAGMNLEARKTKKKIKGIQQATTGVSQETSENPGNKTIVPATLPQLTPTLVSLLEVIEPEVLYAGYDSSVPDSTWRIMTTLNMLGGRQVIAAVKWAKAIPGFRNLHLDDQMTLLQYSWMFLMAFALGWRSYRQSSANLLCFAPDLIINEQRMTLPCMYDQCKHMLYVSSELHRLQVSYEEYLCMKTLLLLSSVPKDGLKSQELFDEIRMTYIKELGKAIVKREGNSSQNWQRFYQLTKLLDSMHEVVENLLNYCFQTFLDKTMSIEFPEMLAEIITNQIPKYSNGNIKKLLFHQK
Kind of experiment: Transrepression Assay (GITAR), TNFα-β-lactamase reporter gene in U937 cells. Particulars: U-937, read-out: maximal activity in the transrepression assay. The experiment is classed as cell-based. Further details: U937 cells contain an endogenous glucocorticoid receptor (GR); endogenous in cells; host or cells: U937 cells stably transfected with the TNF-α promoter/β-lactamase reporter only. The method in brief:
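Reporter readout used CCF2-AM loading for 70–90 min at room temperature after overnight (~18 h, 37 °C) PMA (5 ng/ml final) and LPS (100 ng/ml final) stimulation of compound-treated (30–45 min) TNFα-β-lactamase U937 cells expressing native GR. Activity was normalised to 100 nM dexamethasone repression.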
Regarding `C[C@]12Cc3cnn(-c4ccc(F)cc4)c3C=C1CC[C@@]2(O)CCc1ccccc1CO` [Example 149, (4αS,5R)-1-(4-fluorophenyl)-5-{2-[2-(hydroxymethyl)phenyl]ethyl}-4α-methyl-1,4,4α,5,6,7-hexahydrocyclopenta[f]indazol-5-ol], the Emax fell in the range of 5 to 100%.

The same experiment, now with this note: U-937; 100 nM dexamethasone = 100% activity; read-out: maximal activity in the transrepression assay.
In the case of `C[C@]12Cc3cnn(-c4ccc(F)cc4)c3C=C1CC[C@@]2(O)CCc1cc(F)ccc1C#N` [Example 146, 4-fluoro-2-{2-[(4αS,5R)-1-(4-fluorophenyl)-5-hydroxy-4α-methyl-1,4,4α,5,6,7-hexahydrocyclopenta[f]indazol-5-yl]ethyl}benzonitrile], the Emax was in the range of 5 to 100%.

As to `C[C@]12Cc3cnn(-c4ccc(F)cc4)c3C=C1CC[C@@]2(O)CCc1ccccc1-c1ccc[nH]1` [Example 147, (4αS,5R)-1-(4-fluorophenyl)-4α-methyl-5-{2-[2-(1H-pyrrol-2-yl)phenyl]ethyl}-1,4,4α,5,6,7-hexahydrocyclopenta[f]indazol-5-ol], the Emax lay in the range of 5 to 100%. For `C[C@]12Cc3cnn(-c4ccc(F)cc4)c3C=C1CC[C@@]2(O)CCc1cccc(F)c1CN` [Example 153, (4αS,5R)-5-{2-[2-(aminomethyl)-3-fluorophenyl]ethyl}-1-(4-fluorophenyl)-4α-methyl-1,4,4α,5,6,7-hexahydrocyclopenta[f]indazol-5-ol], the Emax lay in the range of 5 to 100%. Turning to `C[C@]12Cc3cnn(-c4ccc(F)cc4)c3C=C1CC[C@@]2(O)CCc1cccc(F)c1C=O` [Example 154, 2-fluoro-6-{2-[(4αS,5R)-1-(4-fluorophenyl)-5-hydroxy-4α-methyl-1,4,4α,5,6,7-hexahydrocyclopenta[f]indazol-5-yl]ethyl}benzaldehyde], the Emax was in the range of 5 to 100%.

As to `C[C@]12Cc3cnn(-c4ccc(F)cc4)c3C=C1CC[C@@]2(O)CCc1cccc(F)c1C(=O)N1CC(=O)C1` [Example 155, 1-(2-fluoro-6-{2-[(4αS,5R)-1-(4-fluorophenyl)-5-hydroxy-4α-methyl-1,4,4α,5,6,7-hexahydrocyclopenta[f]indazol-5-yl]ethyl}benzoyl)azetidin-3-one], the Emax lay within 5 to 100%. Consider `C[C@]12Cc3cnn(-c4ccc(F)cc4)c3C=C1CC[C@@]2(O)CCc1ccccc1-c1cscn1` [Example 158, (4αS,5R)-1-(4-fluorophenyl)-4α-methyl-5-{2-[2-[1,3-thiazol-4-yl)phenyl]ethyl}-1,4,4α,5,6,7-hexahydrocyclopenta[f]indazol-5-ol], for which the Emax was in the range of 5 to 100%. The same measure, in the same setting: the same measure for `C[C@]12Cc3cnn(-c4ccc(F)cc4)c3C=C1CC[C@@]2(O)CCc1cc(C(F)(F)F)ccc1C#N` [Example 161, 2-{2-[(4αS,5R)-1-(4-fluorophenyl)-5-hydroxy-4α-methyl-1,4,4α,5,6,7-hexahydrocyclopenta[f]indazol-5-yl]ethyl}-4-(trifluoromethyl)benzonitrile]: 5 to 100%; for `Cc1ccc(C#N)c(CC[C@]2(O)CCC3=Cc4c(cnn4-c4ccc(F)cc4)C[C@@]32C)c1` [Example 162, 2-{2-[(4αS,5R)-1-(4-fluorophenyl)-5-hydroxy-4α-methyl-1,4,4α,5,6,7-hexahydrocyclopenta[f]indazol-5-yl]ethyl}-4-methylbenzonitrile]: 5 to 100%. As to `C[C@]12Cc3cnn(-c4ccc(F)cc4)c3C=C1CC[C@@]2(O)CCc1ccc(C(F)(F)F)cc1C#N` [Example 164, 2-{2-[(4αS,5R)-1-(4-fluorophenyl)-5-hydroxy-4α-methyl-1,4,4α,5,6,7-hexahydrocyclopenta[f]indazol-5-yl]ethyl}-5-(trifluoromethyl)benzonitrile], the Emax is 5 to 100%. `CO[C@@]1(CCc2ccccc2C(N)=O)CCC2=Cc3c(cnn3-c3ccc(F)cc3)C[C@@]21C` [Example 165, 2-{2-[(4αS,5R)-1-(4-fluorophenyl)-5-methoxy-4α-methyl-1,4,4α,5,6,7-hexahydrocyclopenta[f]indazol-5-yl]ethyl}benzamide]: the Emax lay in the range of 5 to 100%.
